The data set can be described thus: gradient 5% acetonitrile 3 min, to 50% in 2 min, to 85% in 15 min, held 3 min, 100 µL/min. As to conditions: column: Zorbax Extend-C18 2.1 x 50 mm; eluents: water / acetonitrile, 0.1% formic acid. The method in brief: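 Pure standards were run in mixtures of ~100 molecules by HPLC coupled to a quadrupole time-of-flight mass spectrometer. The column was a Zorbax Extend-C18 (2.1 × 50 mm, 1.8 μm) at 100 μL/min, with water and acetonitrile each containing 0.1% formic acid, in positive and negative ionization mode. Dead and dwell volumes were 40 μL and 900 μL. Retention time was taken from computationally picked adduct peaks, each manually inspected, with data collected over 3 months.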
As to `COc1cc(NC(=O)c2sc(-c3cn(C(C)C)c4ncccc34)nc2C)cc(OC)c1`, the RP-LC retention time was found to be 1030 s.

The compound `COc1ccc(-c2nnc(-c3ccccc3)o2)cc1S(=O)(=O)N1CCC(C(=O)O)CC1` had an RP-LC retention time of 774 s. In the case of `CCCCN(CCCNC(=O)c1cc(C)nn1-c1ccccc1)Cc1ccccc1`, the RP-LC retention time came out at 656 s.

The compound `Cc1ccc(C(=O)Nc2nnc(SCc3nnc(-c4ccccc4C)o3)s2)cc1` came in with an RP-LC retention time of 1040 s.

Consider `O=C(NC1CCCC1)c1ccc(Cn2nc(N3CCN(c4ccc(F)cc4)CC3)ccc2=O)o1`, for which the RP-LC retention time is 853 s. For the compound `Cn1c(=O)c2c(nc(Cc3ccc(N)cc3)n2C)n(C)c1=O`, the RP-LC retention time came to 621 s. The compound `Cc1ccc(S(=O)(=O)N2CCCC2)cc1-c1nnc(-c2ccc(F)cc2)o1` returned an RP-LC retention time of 1040 s. Regarding `COc1cccc(N2CCN(S(=O)(=O)c3cc(-c4cc(C(F)(F)F)on4)cs3)CC2)c1`, the RP-LC retention time amounted to 1200 s. With `O=C(N[C@H]1C[C@@H]2C[C@H]1N(C(=O)Cc1cccs1)C2)c1ccccc1`, the RP-LC retention time is 746 s. `CCOC(=O)c1sc2nc(NC(=O)Cc3ccccc3)sc2c1C` came in with an RP-LC retention time of 1020 s. The result for `COC(=O)c1ccc(NC(=O)Cc2csc3nc(-c4ccc(C)c(C)c4)cn23)cc1` reads 849 s; that for `CCc1nc(-c2cc(S(=O)(=O)N3CCN(c4ccc(F)cc4)CC3)c(C)s2)cs1`, 1220 s; that for `COc1ccccc1NC(=O)C1CCCN1S(=O)(=O)c1cc2c(cc1C)NC(=O)C(C)O2` (configuration not stated), 801 s. In the case of `O=C(NCc1cccs1)C1CCCN(c2nnc3ccc(C(F)(F)F)cn23)C1` (configuration not stated) it was 668 s; in that of `CCNC(=O)C1CCN(C(=O)Nc2ccc(NC(=O)NCCC(C)C)cc2)CC1`, 662 s; in that of `COC(=O)c1ccc(NC(=O)Cn2cccc(-c3nc(-c4ccccc4)no3)c2=O)cc1`, 829 s. `N#Cc1cccc(NC(=O)C2CCN(S(=O)(=O)c3cc(-c4noc(C5CCC5)n4)cs3)CC2)c1`: the RP-LC retention time turned out to be 1070 s. `O=S(=O)(NCc1nc(-c2ccc(-c3csc(C4CC4)n3)cc2)no1)c1ccc(Cl)cc1`: the RP-LC retention time turned out to be 1190 s. `COc1ccc2nc(CN3CCN(S(=O)(=O)c4cccs4)CC3)[nH]c2c1` had an RP-LC retention time of 584 s.

`Cc1ccc(C)c(NC(=O)Cn2c(C)nc3onc(C)c3c2=O)c1`: the RP-LC retention time was 800 s. As for `CCCCCCCCOC(=O)/C=C/c1ccc(O)c(O)c1`, the RP-LC retention time was 630 s. Regarding `Cc1ccc(NC(=O)C2CCN(C(=O)C3Sc4ccccc4NC3=O)CC2)c(C)c1` (configuration not stated), the RP-LC retention time worked out at 762 s. Compound `CC1(C)Cc2cccc(OCC(=O)NCCc3c[nH]c4ccccc34)c2O1` came in with an RP-LC retention time of 850 s. In the case of `O=C(Nc1c(-c2ccccc2)nc2ccccn12)c1cccc([N+](=O)[O-])c1` it was 596 s; in that of `CC(C)C(=O)Nc1nc(-c2ccc3c(c2)NC(=O)CO3)cs1`, 739 s; in that of `CCN1C(=O)COc2ccc(-c3noc(C(C)NC(=O)c4ccccc4)n3)cc21` (configuration not stated), 856 s. `COc1ccc(C)cc1NC(=O)C1CCCN(S(=O)(=O)c2cc(-c3noc(C)n3)cs2)C1` (configuration not stated) gave an RP-LC retention time of 1040 s. As for `CCSc1nnc(NC(=O)CSc2nncn2C)s1`, the RP-LC retention time was found to be 606 s. The result for `N#Cc1ccsc1NC(=O)CCSc1ccccc1` reads 879 s.

The compound `Cc1cc(C(F)(F)F)nn1CC(=O)N1CCC(c2noc(-c3ccccn3)n2)C1` (configuration not stated) yielded an RP-LC retention time of 769 s. `O=C(c1ccc(OCC2CCCN(C(=O)C3CCCC3)C2)cc1)N1CCCC1` (configuration not stated) returned an RP-LC retention time of 846 s. In the case of `Cc1cc(-c2nnc(NC(=O)c3ccc4c(c3)OCCO4)o2)c(C)o1` it was 766 s. `Cc1c(C(=O)O)nnn1-c1ccc2c(c1)OCO2` registered an RP-LC retention time of 639 s. Compound `COc1ccc(CNC(=O)C2CCCN(c3ccc(=O)n(-c4cccc(Cl)c4)n3)C2)cc1OC` (configuration not stated) had an RP-LC retention time of 798 s. In turn, `O=C(c1ccc(C(F)(F)F)cc1)N1CCN(c2nnc3ccccn23)CC1` showed an RP-LC retention time of 698 s. For the compound `CC(C)C(=O)Nc1ccc(CCc2nc3ccc(C(=O)NCc4ccc5c(c4)OCO5)cc3[nH]2)cc1`, the RP-LC retention time was 669 s. Regarding `Cc1n[nH]c(C)c1S(=O)(=O)N1CCC(c2nnc(C3CC3)s2)CC1`, the RP-LC retention time turned out to be 623 s. `COc1cc2c(cc1OC)C(C(=O)NCCN(C)C)C(c1ccccc1F)N(C)C2=O` (configuration not stated): the RP-LC retention time is 599 s. `COc1cc(NC(=O)COc2cc(C)nc(N3CCCC3)n2)cc(OC)c1OC` gave an RP-LC retention time of 602 s. In the case of `CC[C@@H]1C(=O)N(C)c2cnc(Nc3ccc(C(=O)NC4CCN(C)CC4)cc3OC)nc2N1C1CCCC1` it was 624 s; in that of `Cc1nn(-c2ccccc2)c2ccn(CC(=O)N3CCN(c4ccccc4Cl)CC3)c(=O)c12`, 642 s; in that of `CN1CCN(C(=O)C2CC(=O)N(c3ccc4c(c3)CCN4C(=O)C3CC3)C2)CC1` (configuration not stated), 570 s. On to `Cc1ccc(S(=O)(=O)N2C[C@@H]3CN(S(=O)(=O)c4ccccc4F)C[C@H](C2)O3)cc1`, for which the RP-LC retention time is 955 s.

Take `O=C(c1ccoc1)N1CCC(N2CC(F)(F)C[C@H]2CO)CC1`: the RP-LC retention time came out at 539 s. `CC(C)C(=O)N1CCc2ccc(NC(=O)c3ccc(Cl)c(Cl)c3)cc2C1`: the RP-LC retention time was 901 s. As for `Cc1nn(-c2ccccc2)c(C)c1S(=O)(=O)N1CCC(C(=O)Nc2cccc(C#N)c2)CC1`, the RP-LC retention time came out at 958 s. In turn, `CC(=O)Nc1cc2c(cc1SC(C)C)n(C)c(=O)n2C` came in with an RP-LC retention time of 705 s. `COc1ccc(Cl)c2c(=O)c3c([nH]c12)CCN(CC(=O)Nc1ccc(C)c(Cl)c1)C3` had an RP-LC retention time of 762 s.

`Fc1cccc(-c2nnc(Cc3nc(-c4ccc5c(c4)OCO5)no3)o2)c1` returned an RP-LC retention time of 958 s. In the case of `O=C1OC(C(=O)Nc2ccc(F)cc2)Cc2ccc(Cl)cc21` (configuration not stated) it was 858 s; in that of `CCOC(=O)c1c(S(=O)(=O)N2CCC(C(=O)Nc3cccc(C)n3)CC2)c(C)n(C)c1C`, 701 s. In the case of `CC(C)CN(CC(C)C)c1nc(-c2ccc(C(C)(C)C)cc2)nc2ccccc12` it was 1240 s; in that of `CCCCCNC(=O)CN1c2ccc(F)cc2-c2ccccc2S1(=O)=O`, 986 s; in that of `Cn1ccc2cc(S(=O)(=O)N3CCC(C(=O)NCc4ccccn4)CC3)ccc21`, 641 s. Compound `COCCCNC(=O)C1c2ccccc2C(=O)N(C)C1c1ccc(OC)c(OC)c1` (configuration not stated) came in with an RP-LC retention time of 666 s.

For `CCN1C(=O)c2cc(S(=O)(=O)Nc3ccc(F)cc3)ccc2Oc2cccnc21`, the RP-LC retention time is 957 s.

In turn, `Cn1ncc(N2CCC(C(=O)N3CCc4ccccc43)C2)cc1=O` (configuration not stated) came in with an RP-LC retention time of 714 s. `CC(C)(C)c1noc(-c2ccc(-n3cnc(C(=O)N4CCOCC4)c3)nc2)n1`: the RP-LC retention time was found to be 793 s. As to `O=C(c1cnccn1)N1CCC(F)(F)C(COCC2CC2)C1` (configuration not stated), the RP-LC retention time was determined as 786 s.

`O=C(Cn1cnc2nc(N3CCC(C(=O)NC4CC4)CC3)sc2c1=O)Nc1ccc2c(c1)OCO2` yielded an RP-LC retention time of 637 s.

In the case of `COC(=O)c1cc(OCC(=O)Nc2ccc(OC)c(Cl)c2)c2ccccc2n1`, the RP-LC retention time amounted to 812 s. The compound `Cn1ncc(N2CCCC(CC(=O)N3CCC4(CC3)OCCO4)C2)cc1=O` (configuration not stated) yielded an RP-LC retention time of 625 s. `Cc1ccc(-c2csc3c(=O)n(CC(=O)N4CCOc5ccc(C)cc54)cnc23)cc1` came in with an RP-LC retention time of 1120 s. Turning to `O=C(Nc1nccs1)C1CCN(C(=O)Cn2ccc3ccccc32)CC1`, the RP-LC retention time was 719 s.

In turn, `Cc1ccccc1NS(=O)(=O)c1cc2n(c1)CCN(CC(C)C)C2=O` gave an RP-LC retention time of 795 s. Regarding `O=c1oc2c(O)c(O)ccc2c2c1CCCC2`, the RP-LC retention time came out at 683 s. The compound `Cc1ccc(-c2ncc(C(=O)N(C)C)c(-c3ccncc3)n2)cc1` displayed an RP-LC retention time of 754 s. The result for `COc1ccc(C2Cn3nnc(-c4nc(-c5ccc(OCc6ccccc6)cc5)no4)c3CO2)cc1` (configuration not stated) reads 1340 s; that for `COC(=O)c1ccccc1NC(=O)Cn1cccc(-c2nc(-c3ccccc3)no2)c1=O`, 629 s. `CC(C)n1c(N2CCN(C(=O)CCc3nc4ccccc4[nH]3)CC2)cc(=O)n(C(C)C)c1=O` displayed an RP-LC retention time of 648 s. Compound `CCOC(=O)c1c(C)[nH]c(C)c1S(=O)(=O)N1CCC(C(=O)NCc2cccc(C)c2)CC1` registered an RP-LC retention time of 668 s. As to `COc1cc(=O)n2c(c1C(=O)NC1CCc3ccccc31)CCCC2` (configuration not stated), the RP-LC retention time stood at 686 s. `COC(=O)c1ccccc1Nc1c(-c2ccc(OC)c(OC)c2)nc2cnccn12` registered an RP-LC retention time of 732 s. Turning to `COc1ccccc1CNC(=O)c1cn2ccccc2n1`, the RP-LC retention time stood at 665 s. The compound `CCC(=O)N1c2ccc(S(=O)(=O)N3CCCCC3)cc2CC1C(=O)NCCc1ccccc1` (configuration not stated) registered an RP-LC retention time of 720 s. Compound `Cc1noc(-c2ccc(OC3CN(C(=O)Nc4ccccc4)C3)cc2)n1` showed an RP-LC retention time of 737 s. The result for `CCCN1C(=O)c2cc(S(=O)(=O)Nc3ccc(F)cc3)ccc2Oc2cccnc21` reads 1060 s.

These data come from the METLIN SMRT retention time set (Domingo-Almenara et al. 2019).
